How the values were obtained:
Assay in all cases: GFP reporter induction, plate reader
Type in all cases: cell-based
AubR = biological target: T1, AubR (uncultured bacterium, UniProt K0J3R4); settings: read-out: Kmapprox
T1 construct: constitutively expressed from Receiver plasmid (pSB1A3) in E. coli BL21 with hybrid pAub promoter-GFP reporter; acts as dimer

LuxR [1] = biological target: T2, LuxR (Aliivibrio fischeri, UniProt P12746); settings: E. coli BL21 Receiver cells, LB, 37 °C, half-maximal max rate of GFP/OD600; unreliable (little to no response without oxo group)
T2 construct: Receiver plasmid in E. coli BL21, regulator cassette upstream of pLux-GFP; same synthetic system as Canton et al. 2008; acts as dimer
T2 sequence (P12746 1-250): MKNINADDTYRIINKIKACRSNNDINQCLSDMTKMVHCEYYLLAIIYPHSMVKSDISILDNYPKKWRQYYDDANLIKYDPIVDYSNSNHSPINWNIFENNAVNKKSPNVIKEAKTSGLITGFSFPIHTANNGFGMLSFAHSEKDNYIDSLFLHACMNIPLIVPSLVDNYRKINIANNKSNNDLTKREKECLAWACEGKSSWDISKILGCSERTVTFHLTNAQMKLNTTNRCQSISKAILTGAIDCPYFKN

LuxR [2] = biological target: T2, LuxR; settings: E. coli BL21 Receiver cells, LB, 37 °C, half-maximal max rate of GFP/OD600
LasR = biological target: T3, LasR (Pseudomonas aeruginosa, UniProt P25084); settings: E. coli BL21 Receiver cells, LB, 37 °C, half-maximal max rate of GFP/OD600
T3 construct: constitutively expressed from Receiver plasmid (pSB1A3) in E. coli BL21 with hybrid pLas promoter-GFP reporter; acts as dimer
T3 sequence (P25084 whole entry): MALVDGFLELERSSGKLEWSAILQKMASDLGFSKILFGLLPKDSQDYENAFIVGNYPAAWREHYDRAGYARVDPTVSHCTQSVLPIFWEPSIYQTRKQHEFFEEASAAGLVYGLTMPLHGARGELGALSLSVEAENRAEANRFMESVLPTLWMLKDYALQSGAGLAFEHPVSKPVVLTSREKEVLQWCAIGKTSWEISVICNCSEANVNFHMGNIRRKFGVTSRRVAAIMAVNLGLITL

T1 sequence (K0J3R4 1-267): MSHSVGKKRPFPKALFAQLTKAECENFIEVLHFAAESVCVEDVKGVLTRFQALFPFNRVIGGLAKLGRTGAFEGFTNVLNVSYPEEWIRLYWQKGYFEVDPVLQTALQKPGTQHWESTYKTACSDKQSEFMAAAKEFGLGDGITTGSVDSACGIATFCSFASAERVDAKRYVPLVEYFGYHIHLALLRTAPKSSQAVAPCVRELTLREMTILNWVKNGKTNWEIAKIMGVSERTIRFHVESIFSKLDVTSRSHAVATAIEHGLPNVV

| SMILES | EC50 (AubR) [nM] | Kmapprox (LuxR [2]) | further results |
| --- | --- | --- | --- |
| CCCCCCCCCCCC(=O)N[C@H]1CCOC1=O [C12 HSL] | 5 | – | – |
| CCCCCCCCCC(=O)CC(=O)N[C@H]1CCOC1=O [3-oxo-C12 HSL] | 100 | – | – |
| CCCC(=O)N[C@H]1CCOC1=O [C4-HSL] | – | – | Kmapprox (LuxR [1]): ~ 1.0E-6–1.0E-5 M |
| CCCCCC(=O)CC(=O)N[C@H]1CCOC1=O [3-oxo-C8] | – | ~ between 1.00E-7 and 1.00E-8 M | – |
| CCCCCCCCCCCC(=O)CC(=O)N[C@H]1CCOC1=O [3-oxo-C14 HSL] | – | ~ between 1.00E-8 and 1.00E-7 M | Kmapprox (LasR): ~ between 1.00E-9 and 1.00E-8 M |

From PMC6478669, “Engineered Orthogonal Quorum Sensing Systems for Synthetic Gene Regulation in Escherichia coli” (Frontiers in Bioengineering and Biotechnology, 2019)
